# Laboratory results published in patent publication US5240714A, “Non-digoxin-like Na^+, K^+ -ATPase inhibitory factor” (priority 1989, dated 1993).
# Tested on: anti-digoxin antibody
# Assay: digoxin radioimmunoassay (cross-reactivity with anti-digoxin antibody)
# Assay type: binding
# Conditions: at the doses tested
# Procedure: Radioimmunoassay. Generally, a digoxin antibody covalently bound to the inner surface of polypropylene tubes was used, obtained from Immunochem (USA). Digoxin standards and samples were diluted 1:2 in 1.5M Tris-ClH, pH 7.5. ^125 I-digoxin (2000 μCi/μg) was used.
# As stated previously, this cross reaction is not a necessary criteria for HHIF. However, this method is used to follow and evaluate digoxin-like substances in the exemplary purification procedures. An RIA commercial kit was used, purchased from Immunochem. Digoxin standards and sample preparations were diluted 1:2 in 1.5M Tris-ClH, pH 7.5. Digoxin antibodies were covalently bound to the inner surface of polypropylene tubes. After a 30 min. incubation at 20° C., tubes with sample plus I^125 -digoxin unbound radioactivity are discarded and the tubes counted by […]. Values of DLA are calculated by extrapolating from the standard curve constructed on semilogarithmic paper with plots of B/B. vs. concentration.
# A radioimmunoassay method based on charcoal separation using a commercial antibody elicited in rabbit against digoxin is also used as described by Smith, T. W., et al. "Determination Of Therapeutic And Toxic Serum Digoxin Concentrations By Radioimmunoassay." The New England J Med. 1969;1212-1216.
smiles,measurement,value
C[C@@H]1O[C@@H](O[C@H]2C[C@@H](O)[C@]3(CO)[C@H]4[C@H](O)C[C@]5(C)[C@@H](C6=CC(=O)OC6)CC[C@]5(O)[C@@H]4CC[C@]3(O)C2)[C@H](O)[C@H](O)[C@H]1O [ouabain],cross-reactivity with anti-digoxin antibody (digoxin immunoreactivity),weakly cross-reacted
